Results on 1 compound are retold here after patent publication US4977179A, “Proline derivatives” (Otsuka Pharmaceutical Factory, Inc., priority 1986, dated 1990).

The assay deals with T1, angiotensin-converting enzyme (ACE) (Rattus norvegicus, UniProt P47820).
T1 construct: enzyme solution prepared from rat lung; from tissue; host or cells: rat lung
T1 sequence (P47820 36-1313): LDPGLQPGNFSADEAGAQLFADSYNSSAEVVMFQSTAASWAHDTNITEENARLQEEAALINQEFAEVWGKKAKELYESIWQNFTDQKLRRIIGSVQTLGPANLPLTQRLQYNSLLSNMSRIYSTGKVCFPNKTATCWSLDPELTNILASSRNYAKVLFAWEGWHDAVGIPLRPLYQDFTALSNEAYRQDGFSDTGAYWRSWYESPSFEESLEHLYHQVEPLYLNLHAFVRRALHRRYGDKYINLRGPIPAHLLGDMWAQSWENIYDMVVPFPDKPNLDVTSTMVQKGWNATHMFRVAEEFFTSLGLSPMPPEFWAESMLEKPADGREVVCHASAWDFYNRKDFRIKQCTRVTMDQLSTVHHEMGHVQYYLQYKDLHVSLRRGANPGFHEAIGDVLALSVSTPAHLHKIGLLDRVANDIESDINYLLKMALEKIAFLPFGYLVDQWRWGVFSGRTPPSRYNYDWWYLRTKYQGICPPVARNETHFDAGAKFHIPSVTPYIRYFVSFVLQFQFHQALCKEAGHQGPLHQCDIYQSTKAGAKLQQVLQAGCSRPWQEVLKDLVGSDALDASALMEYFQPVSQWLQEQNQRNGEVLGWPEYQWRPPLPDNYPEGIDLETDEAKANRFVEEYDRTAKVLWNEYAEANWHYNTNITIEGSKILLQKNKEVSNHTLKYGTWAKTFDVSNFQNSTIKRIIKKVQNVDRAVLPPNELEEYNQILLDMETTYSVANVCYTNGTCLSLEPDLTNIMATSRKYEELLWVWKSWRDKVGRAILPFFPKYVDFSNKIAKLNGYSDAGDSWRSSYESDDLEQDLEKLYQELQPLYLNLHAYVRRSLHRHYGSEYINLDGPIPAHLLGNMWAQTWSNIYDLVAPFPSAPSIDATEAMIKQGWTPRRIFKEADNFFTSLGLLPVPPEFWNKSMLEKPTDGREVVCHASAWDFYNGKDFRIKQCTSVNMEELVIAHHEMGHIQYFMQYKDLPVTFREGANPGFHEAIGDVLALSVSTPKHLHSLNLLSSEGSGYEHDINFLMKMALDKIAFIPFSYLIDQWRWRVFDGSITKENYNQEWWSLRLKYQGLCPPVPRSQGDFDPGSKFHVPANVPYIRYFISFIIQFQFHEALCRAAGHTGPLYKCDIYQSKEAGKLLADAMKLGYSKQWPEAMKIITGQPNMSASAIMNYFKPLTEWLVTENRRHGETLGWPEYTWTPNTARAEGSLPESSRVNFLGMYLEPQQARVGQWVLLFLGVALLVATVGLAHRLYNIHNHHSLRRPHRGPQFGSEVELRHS
As to the kind of experiment: Inhibitory activity against angiotensin-converting enzyme (ACE). The conditions noted are these: enzyme solution from rat lung; substrate hippuryl-histidyl-leucine; phosphate buffer pH 8.3, 37° C., HPLC of hippuric acid; samples all used in the form of dicarboxylic acid. It counts as biochemical. As to the method:
Inhibitory activity against angiotensin-converting enzyme (ACE)
A […] of the compound of the present invention was dissolved in 50 ml of a phosphate buffer (pH 8.3). The solution was diluted with the same phosphate buffer as above to prepare a sample solution.
A 100 μl quantity of an enzyme solution prepared from rat lung was mixed with 100 μl of the sample solution. The mixture was gently shaken at 37° C. for 10 minutes. To the mixture was added 100 μl of a solution containing 6.99 mM of hippuryl-histidyl-leucine (product of Peptide Institute, Inc., Japan) as a substrate. The resulting mixture was incubated at 37° C. for 10 minutes. The reaction was terminated by addition of 100 μl of a 10% metaphosphoric acid to the reaction mixture and the mixture was neutralized with 1N-sodium hydroxide. A 10 μl quantity of the resulting mixture was subjected to high performance liquid chromatography (HPLC) for analysis. The area valve (S) of the hippuric acid formed by the reaction was measured. A control area valve (R) was measured by repeating the same procedure as above except that 100 μl of phosphate buffer (pH 8.3) was used in place of the sample solution.
A percent inhibition was calculated by the following equation: [formula] […]

Compound `CCCCOCCSC[C@H](NC(C)C(=O)N1CCC[C@H]1C(=O)O)C(=O)O` (single isomer, unassigned) [Example 22] displayed an IC50 of 0.114 nM.

What is called IC50 is the concentration that gives 50% inhibition.
